Laboratory results taken from PMC8288134, “Synthesis, potential antitumor activity, cell cycle analysis, and multitarget mechanisms of novel hydrazones incorporating a 4-methylsulfonylbenzene scaffold: a molecular docking study” (Journal of Enzyme Inhibition and Medicinal Chemistry, 2021).
Like-named read-outs stand apart in the source and are kept apart here.

Assays:
[1] = tested on: full panel of 59 cancer cell lines; assay: NCI antitumor screen, full panel; settings: one dose 10 µM
HT29 = assay: NCI antitumor screen (SRB); format: cell-based; settings: Homo sapiens, HT-29, one dose 10 µM, read-out: Growth inhibition percentage (GI%)
UACC-257 = assay: NCI antitumor screen (SRB); format: cell-based, human; settings: Homo sapiens, one dose 10 µM, read-out: Growth inhibition percentage (GI%)
UO-31 = assay: NCI antitumor screen (SRB); format: cell-based, human; settings: Homo sapiens, UO-31, UO-31; one dose 10 µM; read-out: Growth inhibition percentage (GI%)
SNB-75 = assay: NCI antitumor screen (SRB); format: cell-based; settings: Homo sapiens, one dose 10 µM, read-out: Growth inhibition percentage (GI%)
A549/ATCC = assay: NCI antitumor screen (SRB); format: cell-based; settings: Homo sapiens, one dose 10 µM, read-out: Growth inhibition percentage (GI%)
MDA-MB-468 = assay: NCI antitumor screen (SRB); format: cell-based; settings: Homo sapiens, one dose 10 µM, read-out: Growth inhibition percentage (GI%)
NCI-H226 = assay: NCI antitumor screen (SRB); format: cell-based; settings: Homo sapiens, one dose 10 µM, read-out: Growth inhibition percentage (GI%)
NCI-H522 = assay: NCI antitumor screen (SRB); format: cell-based; settings: Homo sapiens
HOP-62 = assay: NCI antitumor screen (SRB); format: cell-based; settings: Homo sapiens; HOP-62; one dose 10 µM; read-out: Growth inhibition percentage (GI%)
MALME-3M = assay: NCI antitumor screen (SRB); format: cell-based; settings: Homo sapiens, one dose 10 µM, read-out: Growth inhibition percentage (GI%)
SR = assay: NCI antitumor screen (SRB); format: cell-based; settings: Homo sapiens, one dose 10 µM, read-out: Growth inhibition percentage (GI%)
CAKI-1 = assay: NCI antitumor screen (SRB); format: cell-based; settings: Homo sapiens, one dose 10 µM, read-out: Growth inhibition percentage (GI%)
PC-3 = assay: NCI antitumor screen (SRB); format: cell-based; settings: Homo sapiens, one dose 10 µM, read-out: Growth inhibition percentage (GI%)
HL-60(TB) = assay: cells; format: cell-based, human; settings: Homo sapiens, HL-60, HL-60(TB); one dose 10 µM; read-out: Growth inhibition percentage (GI%)
IGROV1 = assay: NCI antitumor screen (SRB); format: cell-based; settings: Homo sapiens, IGROV-1, one dose 10 µM, read-out: Growth inhibition percentage (GI%)
MOLT-4 = assay: NCI antitumor screen (SRB); format: cell-based; settings: Homo sapiens, one dose 10 µM, read-out: Growth inhibition percentage (GI%)
A498 = assay: NCI antitumor screen (SRB); format: cell-based; settings: Homo sapiens, one dose 10 µM, read-out: Growth inhibition percentage (GI%)
HCT-116 = assay: NCI antitumor screen (SRB); format: cell-based; settings: Homo sapiens, read-out: Growth inhibition percentage (GI%)
UACC-62 = assay: NCI antitumor screen (SRB); format: cell-based; settings: Homo sapiens, one dose 10 µM, read-out: Growth inhibition percentage (GI%)
K-562 = assay: NCI antitumor screen (SRB); format: cell-based; settings: Homo sapiens, K562, read-out: Growth inhibition percentage (GI%)

Compound: CS(=O)(=O)c1ccc(C(=O)NN=Cc2ccc(Cl)cc2Cl)cc1 [Compound 17, N'-(2,4-Dichlorobenzylidene)-4-(methylsulfonyl)benzohydrazide]
- PCE: positive cytotoxic effect (number of cell lines with GI 10 to 100% / total number of cell lines) [1]: 9/59
- inhibition at 10 µM (HT29): 11.3%
- inhibition at 10 µM (UACC-257; UACC-257, UACC-257): 29.4%
- inhibition at 10 µM (UO-31): 12.7%
- inhibition at 10 µM (SNB-75): 10.9%
- inhibition at 10 µM (A549/ATCC): 13.7%
- inhibition at 10 µM (MDA-MB-468): 18.1%
- inhibition at 10 µM (NCI-H226): 13.6%
- inhibition at 10 µM (NCI-H522; NCI-H522, one dose 10 µM, read-out: Growth inhibition percentage (GI%)): 25%
- inhibition at 10 µM (HOP-62): 10.2%

Compound: CS(=O)(=O)c1ccc(C(=O)NN=Cc2ccc(Cl)c(Cl)c2)cc1 [Compound 18, N'-(3,4-Dichlorobenzylidene)-4-(methylsulfonyl)benzohydrazide]
- inhibition at 10 µM (MALME-3M): 12.2%
- inhibition at 10 µM (SR): 24.5%
- inhibition at 10 µM (CAKI-1): 10.1%
- PCE: positive cytotoxic effect (number of cell lines with GI 10 to 100% / total number of cell lines) [1]: 14/59
- inhibition at 10 µM (UACC-257; UACC-257): 21.8%
- inhibition at 10 µM (PC-3): 10.3%
- inhibition at 10 µM (HL-60(TB)): 30.6%
- inhibition at 10 µM (IGROV1): 15%
- inhibition at 10 µM (MOLT-4): 31.7%
- inhibition at 10 µM (A498): 16%
- inhibition at 10 µM (A549/ATCC): 20.1%
- inhibition at 10 µM (HCT-116): 12.7%
- inhibition at 10 µM (NCI-H522; NCI-H522, read-out: Growth inhibition percentage (GI%)): 17.2%
- inhibition at 10 µM (UACC-62): 11.2%
- inhibition at 10 µM (K-562): 17.7%
